From patent US12048678B2, “Compounds for treating myelin related disorders” (Case Western Reserve University, priority 2018, dated 2024)

How the values were obtained:
[1] = system: oligodendrocyte progenitor cells (OPCs), OPC-5; test: Differentiation of OPCs to MBP+ oligodendrocytes (in vitro phenotypic screening, high-content imaging); format: cell-based, mouse; conditions: for activation at 0.03 µM / activation at 0.1 µM / activation at 0.3 µM / activation at 1 µM: Mus musculus, Oligodendrocyte progenitor cell, 72 h treatment; for activation at 0.03 µM: read-out: % enhancement of MBP+ oligodendrocyte generation at 0.03 μM concentration; for activation at 0.1 µM: read-out: % enhancement of MBP+ oligodendrocyte generation at 0.1 μM concentration; for activation at 0.3 µM: read-out: % enhancement of MBP+ oligodendrocyte generation at 0.3 μM concentration; for activation at 1 µM: read-out: % enhancement of MBP+ oligodendrocyte generation at 1 μM concentration; for enhancement of oligodendrocyte formation (in words): OPC-5, FIGS. 2a-2c
Procedure: To rigorously assess effects of small molecule and genetic treatments on OPCs, all treatments were assayed in two batches of epiblast stem cell-derived OPCs, and key results were confirmed using mouse primary OPCs. OPCs were generated from two separate EpiSC lines, EpiSC5 (giving rise to OPC-5 OPCs) and 12901 (giving rise to OPC-1 OPCs). EpiSC-derived OPCs were obtained using in vitro differentiation protocols and culture conditions described previously. To ensure uniformity throughout all in vitro screening experiments, EpiSC-derived OPCs were sorted to purity by fluorescence activated cell sorting at passage five with conjugated CD 140a-APC (eBioscience, 17-1401; 1:80) and NG2-AF488 (Millipore, AB5320A4; 1:100) antibodies. Sorted batches of OPCs were expanded and frozen down in aliquots. OPCs were thawed into growth conditions for one passage before use in further assays. Cultures were regularly tested and shown to be mycoplasma free.
EpiSC-derived OPCs were grown and expanded in poly-ornithine (PO) and laminin-coated flasks with growth medium (DMEM/F12 supplemented with N2-MAX (R&D Systems), B-27 (ThermoFisher), GlutaMax (Gibco), FGF2 ([…], R&D systems, 233-FB-025) and PDGF-AA ([…], R&D systems, 233-AA-050) before harvesting for plating. The cells were seeded onto poly-D-lysine 96-well CellCarrier or CellCarrierUltra plates (PerkinElmer) coated with laminin (Sigma, L2020; 15 μg/ml) using multi-channel pipet. For the experiment, 800,000 cells/mL stock in differentiation medium (DMEM/F12 supplemented with N2-MAX and B-27) was prepared and stored on ice for 2 h. Then, 40,000 cells were seeded per well in differentiation medium and allowed to attach for 30 min before addition of drug. For dose-response testing of all molecules except sterols, a 1000× compound stock in dimethyl sulphoxide (DMSO) was added to assay plates with 0.1 μL solid pin multi-blot replicators (V & P Scientific; VP 409), resulting in a final primary screening concentration of 1×. Cells were incubated under standard conditions (37° C., 5% CO2) for 3 days and fixed with 4% paraformaldehyde (PFA) in phosphate buffered saline (PBS) for 20 min. Fixed plates were washed with PBS (200 μL per well) twice, permeabilized with 0.1% Triton X-100 and blocked with 10% donkey serum (v/v) in PBS for 40 min. Then, cells were labelled with MBP antibodies (Abcam, ab7349; 1:200) for 16 h at 4° C. followed by detection with Alexa Fluor conjugated secondary antibodies (1:500) for 45 min. Nuclei were visualized by DAPI staining (Sigma; 1 μg/ml). During washing steps, PBS was added using a multi-channel pipet and aspiration was performed using Biotek EL406 washer dispenser (Biotek) equipped with a 96-well aspiration manifold.
Plates were imaged on the Operetta High Content Imaging and Analysis system (PerkinElmer) and a set of 6 fields captured from each well resulting in an average of 1200 cells being scored per well. Analysis (PerkinElmer Harmony and Columbus software) began by identifying intact nuclei stained by DAPI; that is, those traced nuclei that were larger than 300 μm2 in surface area. Each traced nucleus region was then expanded by 50% and cross-referenced with the […] (MBP) stain to identify oligodendrocyte nuclei, and from this the percentage of oligodendrocytes was calculated.

[2] = system: cholesterol biosynthesis in OPCs (CYP51, TM7SF2, EBP); test: GC/MS-based sterol profiling in OPCs; format: cell-based, mouse; conditions: GC-MS
Procedure: EpiSC-derived OPCs were plated at 0.5 million cells per ml in PDL- and laminin-coated six or twelve well plate with differentiation media. After 24 hours, cells were dissociated with Accutase, rinsed with saline, and cell pellets were frozen. For sterol analyses, cells were lysed in methanol (Sigma-Aldrich) with agitation for 30 minutes and cell debris removed by centrifugation at 10,000 rpm for 15 min. Cholesterol-d7 standard (25,26,26,26,27,27,27-^2H7-cholesterol, Cambridge Isotope Laboratories) was added before drying under nitrogen stream and derivatization with 55 μl of bis(trimethylsilyl)trifluoroacetamide/trimethylchlorosilane to form trimethylsilyl derivatives. Following derivatization at 60° C. for 20 minutes, 1 μl was analyzed by gas chromatography/mass spectrometry using an Agilent 5973 Network Mass Selective Detector equipped with a 6890 gas chromatograph system and a HP-5MS capillary column ([…]). Samples were injected in splitless mode and analyzed using electron impact ionization. Ion fragment peaks were integrated to calculate sterol abundance, and quantitation was relative to cholesterol-d7. The following m/z ion fragments were used to quantitate each metabolite: cholesterol-d7 (465), FF-Mas (482), cholesterol (368), zymostenol (458), zymosterol (456), desmosterol (456, 343), 7-dehydrocholesterol (456, 325), lanosterol (393), lathosterol (458), 14-dehydrozymostenol (456). Calibration curves were generated by injecting varying concentrations of sterol standards and maintaining a fixed amount of cholesterol-D7. The human glioma cell line GBM528 was a gift of Jeremy Rich (Cleveland Clinic). Human cortical spheroids were generated as described previously.

[3] = molecular target: T1, estrogen receptor (T47D cells) (Homo sapiens, UniProt P03372); test: Estrogen-dependent cell proliferation assay; format: cell-based; conditions: Compound 1 at 1 μM, TASIN-1 100 nM
T1 construct: estrogen dependent growth of T47D cells; endogenous in cells; host or cells: T47D
T1 sequence (P03372 1-595): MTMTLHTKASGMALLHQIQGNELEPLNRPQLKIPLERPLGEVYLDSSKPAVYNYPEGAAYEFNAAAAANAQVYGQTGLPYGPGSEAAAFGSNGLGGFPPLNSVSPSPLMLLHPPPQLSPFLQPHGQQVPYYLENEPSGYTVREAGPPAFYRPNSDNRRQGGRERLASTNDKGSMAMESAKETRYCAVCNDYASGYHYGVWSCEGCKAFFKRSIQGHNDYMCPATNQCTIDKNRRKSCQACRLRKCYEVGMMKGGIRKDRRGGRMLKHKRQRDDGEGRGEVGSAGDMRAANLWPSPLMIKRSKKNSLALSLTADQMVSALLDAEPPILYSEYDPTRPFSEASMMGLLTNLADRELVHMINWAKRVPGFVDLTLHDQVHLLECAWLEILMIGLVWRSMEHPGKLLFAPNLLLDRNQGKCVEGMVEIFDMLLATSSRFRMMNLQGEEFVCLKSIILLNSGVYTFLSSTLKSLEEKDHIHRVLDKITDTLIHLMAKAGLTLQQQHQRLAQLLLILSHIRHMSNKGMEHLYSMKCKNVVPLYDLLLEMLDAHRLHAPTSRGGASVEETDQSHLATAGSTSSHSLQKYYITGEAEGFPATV
Procedure: Estrogen-dependent cell proliferation was measured as previously described with minor modifications. After growth in estrogen-free media (Phenol red-free RPMI supplemented with 10% charcoal stripped fetal bovine serum) for 5 days, cells were seeded at 2,500 cells/well into 96 well plates. The following day 3× drug containing media was added to triplicate wells and cells were allowed to grow for an additional 5 days at 37° C. in standard a 5% CO2 humidified incubator. Total DNA per well was measured using an adaptation of the method of Labarca and Paigen. At this time media was removed, cells were washed one time with 0.25×PBS and 100 μl of distilled water was added. […] After incubation at room temperature for 2 hours, plates were read in a SpectraMax i3 fluorescent plate reader (Molecular Devices, Sunnyvale, CA) with excitation at 360 nm and emission at 460 nm. All values were converted to microgram DNA per well using a standard curve derived from purified salmon testes DNA.

kappa opioid receptor = kappa opioid receptor (Homo sapiens, UniProt P41145); test: k-Opioid receptor agonism assay (Tango  U2OS cells); format: cell-based; conditions: Compound 1 at 1 μM, TASIN-1 100 nM, U50488 2 μM
M1 muscarinic receptor = molecular target: T2, M1 muscarinic receptor (Homo sapiens, UniProt P11229); test: Muscarinic receptor antagonism assay (GeneBLAzer M1-NFAT-bla CHO-K1 cells); format: cell-based; conditions: Compound 1 at 1 μM, TASIN-1 100 nM; concentration maximally effective for oligodendrocyte formation
T2 sequence (P11229 1-460): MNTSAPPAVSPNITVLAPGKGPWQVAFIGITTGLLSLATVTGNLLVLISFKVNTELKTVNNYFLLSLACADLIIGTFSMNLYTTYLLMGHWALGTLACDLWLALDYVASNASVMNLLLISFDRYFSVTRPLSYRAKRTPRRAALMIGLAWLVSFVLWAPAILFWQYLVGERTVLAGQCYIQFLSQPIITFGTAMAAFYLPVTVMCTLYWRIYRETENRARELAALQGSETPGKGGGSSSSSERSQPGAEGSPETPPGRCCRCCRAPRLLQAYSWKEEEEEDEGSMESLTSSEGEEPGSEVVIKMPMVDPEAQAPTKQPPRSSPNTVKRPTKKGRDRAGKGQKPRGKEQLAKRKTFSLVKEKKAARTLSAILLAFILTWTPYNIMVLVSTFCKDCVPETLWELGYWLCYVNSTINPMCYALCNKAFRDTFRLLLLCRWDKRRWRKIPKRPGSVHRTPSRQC
Procedure: GeneBLAzer M1-NFAT-bla CHO-K1 cells (or M3- or M5-NFAT-bla CHO-K1 cells)(ThermoFisher) were thawed into Assay Media (DMEM, 10% dialyzed FBS, 25 mM HEPES pH 7.3, 0.1 mM NEAA). 10,000 cells/well were added to a 384-well TC treated assay plate and incubated 16-24 h at 37° C. 4 μl of a 10× stock of antimuscarinic molecules was added to the plate and incubated 30 min. 4 μl of 10× control agonist Carbachol at the pre-determined EC80 concentration was added to wells containing antimuscarinic molecules. The plate was incubated 5 h and 8 μl of 1 μM Substrate+Solution D Loading Solution was added to each well and the plate was incubated 2 h at room temperature before reading on a fluorescence plate reader.

Sequence of kappa opioid receptor (P41145 whole entry): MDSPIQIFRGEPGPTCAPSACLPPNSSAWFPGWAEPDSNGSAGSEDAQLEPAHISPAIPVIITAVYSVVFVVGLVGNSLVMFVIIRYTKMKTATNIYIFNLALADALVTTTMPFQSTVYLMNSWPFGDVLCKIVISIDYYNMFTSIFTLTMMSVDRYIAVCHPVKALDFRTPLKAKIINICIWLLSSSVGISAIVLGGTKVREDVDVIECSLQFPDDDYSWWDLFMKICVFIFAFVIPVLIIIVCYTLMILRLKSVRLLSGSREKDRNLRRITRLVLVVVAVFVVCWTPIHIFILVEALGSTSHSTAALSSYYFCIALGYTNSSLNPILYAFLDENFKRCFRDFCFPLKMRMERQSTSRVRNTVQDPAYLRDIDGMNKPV

SMILES	activation at 0.03 µM [1]	activation at 0.1 µM [1]	activation at 0.3 µM [1]	activation at 1 µM [1]	enhancement of oligodendrocyte formation (in words) [1]	14-dehydrozymostenol accumulation in OPCs (indicative of TM7SF2 inhibition) ([2]; 1 μM)	EC50 for enhancing oligodendrocyte formation ([1]; wide concentration range)	cholesterol biosynthesis in OPCs ([2]; 10 μM screening dose)	lanosterol accumulation in OPCs (indicative of CYP51 inhibition) ([2]; 10 μM)	effect in cell-based assay for the estrogen receptor (estrogen dependent growth of T47D cells) [3]	effect in cell-based assay for the kappa opioid receptor (kappa opioid receptor)	effect in cell-based assay for the M1 muscarinic receptor (M1 muscarinic receptor)
CCN1CCN(Cc2ccc(-c3ccccc3)cc2)CC1 [Compound 2]	20 to 30%	30 to 40%	> 40%	> 40%								
c1ccc(-c2ccc(CN3CCCCCC3)cc2)cc1 [Compound 3]	20 to 30%	20 to 30%	30 to 40%	> 40%								
CCCCOc1ccc(CN2CCCCC2CC)cc1 (stereo not drawn) [Compound 4]	≤ 20%	20 to 30%	≤ 20%	20 to 30%								
Clc1ccc(CN2CCN(Cc3ccccc3)CC2)cc1Cl [Compound 5]	≤ 20%	20 to 30%	30 to 40%	30 to 40%								
CN1CCN(Cc2ccc(-c3ccccc3)cc2)CC1 [Compound 6]	≤ 20%	20 to 30%	30 to 40%	30 to 40%								
c1ccc(-c2ccc(CN3CCSCC3)cc2)cc1 [Compound 7]	≤ 20%	30 to 40%	20 to 30%	30 to 40%								
OC1CCCN(Cc2ccc(-c3ccccc3)cc2)C1 (stereo not drawn) [Compound 8]	20 to 30%	20 to 30%	30 to 40%	30 to 40%								
OCC1CCCN(Cc2ccc(-c3ccccc3)cc2)C1 (stereo not drawn) [Compound 9]	20 to 30%	20 to 30%	30 to 40%	30 to 40%								
CN(C(=O)c1ccc(-c2ccccc2)cc1)[C@@H]1Cc2ccc(CN3CCCCC3CO)cc2C1 (stereo partly drawn) [Compound 10]	20 to 30%	30 to 40%	> 40%	> 40%	strongly promoted oligodendrocyte formation	accumulated 14-dehydrozymostenol						
OCC1CCCCN1Cc1ccc(Cl)c(Cl)c1 (stereo not drawn) [Compound 11]	20 to 30%	30 to 40%	> 40%	> 40%	strongly promoted oligodendrocyte formation							
OCCN1CCN(Cc2ccc(-c3ccccc3)cc2)CC1 [Compound 12]	≤ 20%	20 to 30%	30 to 40%	> 40%								
NC(=O)C1CCN(Cc2ccc(-c3ccccc3)cc2)CC1 [Compound 13]	20 to 30%	20 to 30%	30 to 40%	> 40%								
CSc1ccc(CN2CCCCC2CO)cc1 (stereo not drawn) [Compound 14]	20 to 30%	30 to 40%	30 to 40%	30 to 40%								
Clc1ccc(CN2CCCCCC2)cc1Cl [Compound 15]	≤ 20%	20 to 30%	30 to 40%	30 to 40%								
OC1CCN(Cc2ccc(-c3ccccc3)cc2)CC1 [Compound 16]	20 to 30%	20 to 30%	20 to 30%	30 to 40%								
Clc1ccc(CN2CCCCCCC2)cc1Cl [Compound 17]	≤ 20%	≤ 20%	≤ 20%	≤ 20%								
c1ccc(-c2ccc(CNCCc3ccc(CN4CCCCC4)cc3)cc2)cc1 [Compound 18]	20 to 30%	20 to 30%	20 to 30%	30 to 40%								
CC(C)C(=O)NC(Cc1ccc(OCc2ccccc2)cc1)C(=O)NCCCN(C)c1ccccc1 (stereo not drawn) [Compound 19]	20 to 30%	20 to 30%	30 to 40%	30 to 40%			mid-nanomolar range	inhibition of cholesterol biosynthesis	accumulation of the 8,9-unsaturated sterol lanosterol			
COc1ccc(S(=O)(=O)N2CCC(N3CCC(C)CC3)CC2)cc1 [TASINI, TASIN-1, reference compound]										little affinity	little affinity	little affinity
